Experimental data from US7718767B2, “3-ether and 3-thioether substituted cyclosporin derivatives for the treatment and prevention of hepatitis C infection” (Scynexis, Inc., priority 2006, dated 2010).
Where a name gives a salt, the structure may show the parent alone.

What was measured:
[1] = system: human hepatoma cell line ET; test: Cytotoxicity in the replicon cell line, colorimetric assay of cell numbers; settings: ET cells, 72 h; for IC50: read-out: Cytotoxicity IC50, concentration inhibiting cell viability by 50%; for IC90: read-out: Cytotoxicity IC90, concentration inhibiting cell viability by 90%
Source text: Compounds were examined in the human hepatoma cell line ET (lub ubi heo/ET), a HCV RNA replicon containing a stable luciferase (LUC) reporter. The HCV RNA replicon ET contains the 5′ end of HCV (with the HCV Internal Ribosome Entry Site (IRES) and the first few amino acids of the HCV core protein) which drives the production of a firefly luciferase (LUC), ubiquitin, and neomycin phosphotransferase (NeoR) fusion protein. Ubiquitin cleavage releases the LUC and NeoR proteins. The EMCV IRES element controls the translation of the HCV […] NS3-NS5. The NS3 protein cleaves the HCV polyprotein to release the mature NS3, NS4A, NS4B, NS5A and NS5B proteins that are required for HCV replication. At the 3′ end of the replicon is the authentic 3′ NTR of HCV. The activity of the LUC reporter is directly proportional to HCV replication levels and positive-control antiviral compounds produce a reproducible antiviral response using the LUC endpoint.
The compounds were dissolved in DMSO at five half-log concentrations each, ranging from either 0.02 to 2.0 μM, 0.03 to 3 μM, […], or 1 to 100 μM. Subconfluent cultures of the ET line were plated out into 96 well plates dedicated for the analysis of cell numbers (cytotoxicity) or antiviral activity and the next day the compounds were added to the appropriate wells. The cells were processed 72 h later when the cells were still subconfluent. […] The activity of the LUC reporter is directly proportional to HCV RNA levels in the human cell line. The HCV-replicon assay was validated in parallel experiments using interferon-alpha-2b as a positive control.

HIV-1IIIB = test: HIV MTS cytoprotection assay in CEM-SS cells; format: cell-based, human immunodeficiency virus-1; settings: 6 days post-infection, concentration inhibiting virus replication by 50%
HCV RNA replicon ET = test: HCV RNA replicon luciferase reporter assay, antiviral activity; format: cell-based; settings: ET replicon cells, 72 h, LUC activity; for EC50: concentration reducing viral replication by 50%; for EC90: concentration reducing viral replication by 90%

Molecule	IC50 [1] [µM]	EC50 (HIV-1IIIB) [µM]	EC50 (HCV RNA replicon ET) [µM]	EC90 (HCV RNA replicon ET) [µM]	IC90 [1] [µM]
CC=CCC(C)C(O)C1C(=O)NC(CC)C(=O)N(C)C(OCC(CC)CC)C(=O)N(C)C(CC(C)C)C(=O)NC(C(C)C)C(=O)N(C)C(CC(C)C)C(=O)NC(C)C(=O)NC(C)C(=O)N(C)C(CC(C)C)C(=O)N(C)C(CC(C)C)C(=O)N(C)C(C(C)C)C(=O)N1C (centres unmarked) [Compound E, 3-(2-ethylbutoxy)cyclosporin]	15.6	–	–	–	–
3-(isopropoxy)-4-(gamma-hydroxymethylleucine)cyclosporin [V]	–	0.44	0.36	1.2	–
C/C=C/C[C@@H](C)[C@@H](O)[C@H]1C(=O)N[C@@H](CC)C(=O)N(C)[C@H](OCCN)C(=O)N(C)[C@@H](CC(C)C)C(=O)N[C@@H](C(C)C)C(=O)N(C)[C@@H](CC(C)C)C(=O)N[C@@H](C)C(=O)N[C@H](C)C(=O)N(C)[C@@H](CC(C)C)C(=O)N(C)[C@@H](CC(C)C)C(=O)N(C)[C@@H](C(C)C)C(=O)N1C [Compound B, 3-(2-aminoethoxy)cyclosporin]	6.31	–	1.18	2.72	20.3
CC=CCC(C)C(O)C1C(=O)NC(CC)C(=O)N(C)C(SCCN(C)C)C(=O)N(C)C(CC(C)(C)O)C(=O)NC(C(C)C)C(=O)N(C)C(CC(C)C)C(=O)NC(C)C(=O)NC(C)C(=O)N(C)C(CC(C)C)C(=O)N(C)C(CC(C)C)C(=O)N(C)C(C(C)C)C(=O)N1C [MeSO2, [(R)-2-(N,N-dimethylamino)ethylthio-Sar]3[4′-hydroxy-MeLeu]4 cyclosporin]	> 2	–	0.16	0.5	> 2
CC=CCC(C)C(O)C1C(=O)NC(CC)C(=O)N(C)C(SCCN(C)C)C(=O)N(C)C(CC(C)(C)O)C(=O)NC(C(C)C)C(=O)N(C)C(CC(C)C)C(=O)NC(C)C(=O)NC(C)C(=O)N(C)C(CC(C)C)C(=O)N(C)C(CC(C)C)C(=O)N(C)C(C(C)C)C(=O)N1C [hydrochloride, [(R)-2-(N,N-dimethylamino)ethylthio-Sar]3[4′-hydroxy-MeLeu]4 cyclosporin]	> 2	–	0.11	0.38	> 2
C/C=C/C[C@@H](C)[C@@H](O)[C@H]1C(=O)N[C@@H](CC)C(=O)N(C)C(OCCO)C(=O)N(C)[C@@H](CC(C)C)C(=O)N[C@@H](C(C)C)C(=O)N(C)[C@@H](CC(C)C)C(=O)N[C@@H](C)C(=O)N[C@H](C)C(=O)N(C)[C@@H](CC(C)C)C(=O)N(C)[C@@H](CC(C)C)C(=O)N(C)[C@@H](C(C)C)C(=O)N1C (some centres unmarked) [G, 3-(2-hydroxyethoxy)cyclosporin]	10.3	–	< 0.2	0.57	> 20
CC=CCC(C)C(O)C1C(=O)NC(CC)C(=O)N(C)C(OCCN2CCCCC2)C(=O)N(C)C(CC(C)C)C(=O)NC(C(C)C)C(=O)N(C)C(CC(C)C)C(=O)NC(C)C(=O)NC(C)C(=O)N(C)C(CC(C)C)C(=O)N(C)C(CC(C)C)C(=O)N(C)C(C(C)C)C(=O)N1C (centres unmarked) [K, 3-[2-(piperidin-1-yl)ethoxy]cyclosporin]	5.5	–	0.26	0.59	17.8
C/C=C/C[C@@H](C)[C@@H](O)[C@H]1C(=O)N[C@@H](CC)C(=O)N(C)[C@H](OCC(C)(C)C)C(=O)N(C)[C@@H](CC(C)C)C(=O)N[C@@H](C(C)C)C(=O)N(C)[C@@H](CC(C)C)C(=O)N[C@@H](C)C(=O)N[C@H](C)C(=O)N(C)[C@@H](CC(C)C)C(=O)N(C)[C@@H](CC(C)C)C(=O)N(C)[C@@H](C(C)C)C(=O)N1C [F, 3-(2,2-dimethylpropoxy)cyclosporin]	> 20	–	17	–	–
C/C=C/C[C@@H](C)[C@@H](O)[C@H]1C(=O)N[C@@H](CC)C(=O)N(C)C(OCCNC)C(=O)N(C)[C@@H](CC(C)C)C(=O)N[C@@H](C(C)C)C(=O)N(C)[C@@H](CC(C)C)C(=O)N[C@@H](C)C(=O)N[C@H](C)C(=O)N(C)[C@@H](CC(C)C)C(=O)N(C)[C@@H](CC(C)C)C(=O)N(C)[C@@H](C(C)C)C(=O)N1C (some centres unmarked) [Compound I, 3-[2-(N-methylamino)ethoxy]cyclosporin]	2.83	–	1.01	1.87	17.4
C/C=C/C[C@@H](C)[C@@H](O)[C@H]1C(=O)N[C@@H](CC)C(=O)N(C)[C@H](SCCOC)C(=O)N(C)[C@@H](CC(C)(C)O)C(=O)N[C@@H](C(C)C)C(=O)N(C)[C@@H](CC(C)C)C(=O)N[C@@H](C)C(=O)N[C@H](C)C(=O)N(C)[C@@H](CC(C)C)C(=O)N(C)[C@@H](CC(C)C)C(=O)N(C)[C@@H](C(C)C)C(=O)N1C [Compound N, 3-(2-methoxyethylthio)-4-(gamma-hydroxymethylleucine)cyclosporin]	> 20	0.35	< 0.2	< 0.2	> 20
3-(ethoxy)-4-(gamma-hydroxymethylleucine)cyclosporin [W]	–	0.68	0.13	0.51	–
CC=CCC(C)C(O)C1C(=O)NC(CC)C(=O)N(C)C(SCCN(C)C)C(=O)N(C)C(CC(C)(C)O)C(=O)NC(C(C)C)C(=O)N(C)C(CC(C)C)C(=O)NC(C)C(=O)NC(C)C(=O)N(C)C(CC(C)C)C(=O)N(C)C(CC(C)C)C(=O)N(C)C(C(C)C)C(=O)N1C [phosphate, [(R)-2-(N,N-dimethylamino)ethylthio-Sar]3[4′-hydroxy-MeLeu]4 cyclosporin]	> 2	–	0.13	0.47	> 2
C/C=C/C[C@@H](C)[C@@H](O)[C@H]1C(=O)N[C@@H](CC)C(=O)N(C)C(OCC)C(=O)N(C)[C@@H](CC(C)C)C(=O)N[C@@H](C(C)C)C(=O)N(C)[C@@H](CC(C)C)C(=O)N[C@@H](C)C(=O)N[C@H](C)C(=O)N(C)[C@@H](CC(C)C)C(=O)N(C)[C@@H](CC(C)C)C(=O)N(C)[C@@H](C(C)C)C(=O)N1C (some centres unmarked) [M, 3-ethoxycyclosporin]	> 20	–	3.35	6.11	> 20
CC=CCC(C)C(O)C1C(=O)NC(CC)C(=O)N(C)C(SCCN(C)C)C(=O)N(C)C(CC(C)(C)O)C(=O)NC(C(C)C)C(=O)N(C)C(CC(C)C)C(=O)NC(C)C(=O)NC(C)C(=O)N(C)C(CC(C)C)C(=O)N(C)C(CC(C)C)C(=O)N(C)C(C(C)C)C(=O)N1C [acetate, [(R)-2-(N,N-dimethylamino)ethylthio-Sar]3[4′-hydroxy-MeLeu]4 cyclosporin]	> 2	–	–	0.3	> 2
C/C=C/C[C@@H](C)[C@@H](O)[C@H]1C(=O)N[C@@H](CC)C(=O)N(C)[C@H](OCCN(C)C)C(=O)N(C)[C@@H](CC(C)C)C(=O)N[C@@H](C(C)C)C(=O)N(C)[C@@H](CC(C)C)C(=O)N[C@@H](C)C(=O)N[C@H](C)C(=O)N(C)[C@@H](CC(C)C)C(=O)N(C)[C@@H](CC(C)C)C(=O)N(C)[C@@H](C(C)C)C(=O)N1C [Compound C, 3-(2-N,N-dimethylaminoethoxy)cyclosporin]	> 3	–	0.18	0.64	> 3
C/C=C/C[C@@H](C)[C@@H](O)[C@H]1C(=O)N[C@@H](CC)C(=O)N(C)C(OC)C(=O)N(C)[C@@H](CC(C)C)C(=O)N[C@@H](C(C)C)C(=O)N(C)[C@@H](CC(C)C)C(=O)N[C@@H](C)C(=O)N[C@H](C)C(=O)N(C)[C@@H](CC(C)C)C(=O)N(C)[C@@H](CC(C)C)C(=O)N(C)[C@@H](C(C)C)C(=O)N1C (some centres unmarked) [A, 3-methoxycyclosporin]	2.33	–	–	0.22	> 3
C/C=C/C[C@@H](C)[C@@H](O)[C@H]1C(=O)N[C@@H](CC)C(=O)N(C)C(OCCN(C)C(C)C)C(=O)N(C)[C@@H](CC(C)C)C(=O)N[C@@H](C(C)C)C(=O)N(C)[C@@H](CC(C)C)C(=O)N[C@@H](C)C(=O)N[C@H](C)C(=O)N(C)[C@@H](CC(C)C)C(=O)N(C)[C@@H](CC(C)C)C(=O)N(C)[C@@H](C(C)C)C(=O)N1C (some centres unmarked) [J, 3-[2-(N-methyl-N-isopropylamino)ethoxy]cyclosporin]	8.2	–	0.15	0.53	19.6
[(R)-2-(N,N-dimethylamino)ethylthio-Sar]3[4′-hydroxy-MeLeu]4 cyclosporin [propionate]	> 2	–	0.1	0.32	> 2
[(R)-2-(N,N-dimethylamino)ethylthio-Sar]3[4′-hydroxy-MeLeu]4 cyclosporin [citrate]	> 2	–	0.11	0.41	> 2
